Active and inactive are the calls of the source. How the calls were made is not given here.
Each compound was assayed against Signal transducer and activator of transcription 3 (Homo sapiens) (UniProt P40763) (assay: STAT3 activation reporter response, dose response, cell-based (AID 1398)).
For CCOc1ccc(CN2CCN(Cc3cc4ccccc4[nH]3)CC2CCO)cc1 (stereo not given), the IC50 was 0.644 µM. Work on O=C(Cc1cccs1)Nc1ccccn1 yielded an IC50 of 8.06 µM. With CN(C)C(CN1C(=O)C2CC=CCC2C1=O)c1cn(C)c2ccccc12 (stereo not given) the IC50 was > 55.7 µM (inactive). CN(Cc1ccccc1)Cc1c[nH]c2ccccc12 was tested, and the IC50 was > 55.7 µM (inactive). Cn1nc(-c2ccc(Cl)cc2)c2cc(C(=O)NCCCN3CCOCC3)sc21 was tested, and the IC50 was “inactive”. Work on CN1N=C(C(=O)N2CCc3c([nH]c4ccccc34)C2c2c(F)cccc2Cl)CCC1=O (stereo not given) yielded an IC50 of 4.82 µM. CN1CCN(C(=O)CNc2ccc(C(F)(F)F)cc2[N+](=O)[O-])CC1 gave an IC50 of 3.56 µM. For COCCCNc1nc2c(-c3cccc(C(F)(F)F)c3)nnn2c2ccccc12, the IC50 was > 55.7 µM (inactive). COc1ccc(Cl)cc1NC(=O)c1oc(C)nc1C was tested, and the IC50 was > 55.7 µM (inactive). Work on COc1ccc(-c2nc3scc(-c4ccccc4)n3n2)cc1 yielded an IC50 of 5.79 µM. CCOc1cc(-c2ccc(N)c(OCC)c2)ccc1N was tested, and the IC50 was > 55.7 µM (inactive). Cc1c(C#N)c2ccccc2n1CC(=O)O showed an IC50 of 5.09 µM. Nc1nnc(Cc2c[nH]c3ccccc23)s1 was tested, and the IC50 was > 55.7 µM (inactive). In the case of CC(=O)n1cc(Nc2ccc([N+](=O)[O-])cc2)c2ccccc21, the IC50 is reported as > 55.7 µM (inactive). In the case of COc1ccccc1C(=O)NNC(=O)c1ccc(NC(=O)C(C)C)cc1, the IC50 is reported as 1.3 µM. For CCOc1ccccc1C1CC(c2cccs2)=NN1S(C)(=O)=O (stereo not given), the IC50 was > 55.7 µM (inactive). For Cc1nc2c(n1C1CCCCC1)C(=O)c1ccccc1C2=O, the IC50 was 5.8 µM. In the case of Cc1nc2ccccc2cc1O, the IC50 is reported as 3.4 µM. With c1ccc2c(CNC3CCCCCC3)c[nH]c2c1 the IC50 was > 55.7 µM (inactive). With O=C(c1cc[n+]([O-])cc1)N1CCc2c([nH]c3ccccc23)C1c1ccccc1Cl (stereo not given) the IC50 was 8.29 µM. For CCOC(=O)CC1C(=O)NCCN1C(=O)c1cc2c(=O)n3cccc(C)c3nc2s1 (stereo not given), the IC50 was > 55.7 µM (inactive). For COCCSc1ccccc1C(=O)NCCc1ccccc1, the IC50 was > 55.7 µM (inactive). CCC(C(=O)Nc1ccccc1OC)n1c(C(=O)OC)cc2ccsc21 (stereo not given) showed an IC50 of 2.02 µM. In the case of CC1CCN(C(=O)Cn2c(=O)n(CCc3ccccc3)c(=O)c3ccccc32)CC1, the IC50 is reported as > 55.7 µM (inactive). For COc1ccc(S(=O)(=O)Nc2nc3ccccc3s2)cc1OC, the IC50 was “inactive”. For COCCNC(=O)C(=O)NNC(=O)c1ccccc1OC, the IC50 was “inactive”. COCc1cc(=O)n2c(-c3ccccc3OC)n[nH]c2n1 gave an IC50 of 0.821 µM. COc1ccc(CN2CCN(S(=O)(=O)c3ccc(C)cc3)CC2)cc1Br was tested, and the IC50 was 6.13 µM. With COc1ccc(-c2nnc(Nc3nc4c(OC)cccc4s3)o2)cc1 the IC50 was > 55.7 µM (inactive). In the case of Cc1nc(/N=C(\N)Nc2ccccc2)nc2ccccc12, the IC50 is reported as 2.11 µM. Cc1nnc(NC(=O)c2oc3c(ccc4ccccc43)c2C)s1 was tested, and the IC50 was > 0.619 µM (inactive). CCCc1nnc(N2C(=O)c3cccc4cccc(c34)C2=O)s1 was tested, and the IC50 was > 55.7 µM (inactive). Work on CN(C)C(=O)COC(=O)/C=C/c1ccccc1[N+](=O)[O-] yielded an IC50 of 7.75 µM. CN1CCN(CCCNC(=O)c2cc3c(-c4ccc(Cl)cc4)nn(C)c3s2)CC1 showed an IC50 of 3.78 µM. CC(OC(=O)c1cccnc1SCc1cc(=O)n2ccccc2n1)c1ccccn1 (stereo not given) was tested, and the IC50 was > 6.19 µM (inactive). N#Cc1cn(CC(=O)O)c2ccccc12 gave an IC50 of 9.78 µM. In the case of Cn1nc(-c2ccc(Cl)cc2)c2cc(C(=O)NCC3CCCO3)sc21 (stereo not given), the IC50 is reported as > 6.19 µM (inactive). Work on O=C(c1cccnc1)N1CCc2ccccc21 yielded an IC50 of 8.13 µM. Cc1cc(-c2ccc(Cl)cc2)c(C#N)c(N)n1 gave an IC50 of 5.9 µM. Work on CN1C(=O)/C(=C\c2cc(Br)cs2)c2ccccc21 yielded an IC50 of 0.635 µM. Compound O=C(Cc1c[nH]c2ccccc12)Nc1nc2ccccc2[nH]1 has an IC50 of 4.98 µM. With COc1ccc(C)cc1NC(=O)c1[nH]c(C)c(C(C)=O)c1C the IC50 was “inactive”. For COC(=O)c1sccc1NC(=O)c1ccc(Br)s1, the IC50 was > 18.6 µM (inactive). With Cc1nn(-c2ccc(Cl)cc2)c(N)c1C(O)(CSc1nccn1C)C(F)(F)F (stereo not given) the IC50 was > 55.7 µM (inactive). For COc1ccc(NC(=O)N2CCn3c2nc2ccccc23)cc1, the IC50 was > 55.7 µM (inactive). For CCOc1ccccc1CN1CCN(Cc2cc3ccccc3[nH]2)CC1CCO (stereo not given), the IC50 was > 55.7 µM (inactive). O=C(CCN1CCOCC1)N1CCc2c([nH]c3ccccc23)C1c1cccc(Cl)c1 (stereo not given) showed an IC50 of 7.41 µM. CC(=O)NCCC(=O)N1CCc2c([nH]c3ccccc23)C1c1cccc(C)c1 (stereo not given) showed an IC50 of 2.5 µM. For CC1Cc2ccccc2N1Cc1cc(=O)n2ccsc2n1 (stereo not given), the IC50 was “inactive”. Work on O=C(Nc1ccccc1O)c1csc2c1CCCC2 yielded an IC50 of 2.44 µM. COc1ccc(Br)cc1C(=O)Nc1cccc(C)c1 was tested, and the IC50 was “inactive”. Work on Cc1ccccc1C1c2[nH]c3ccccc3c2CCN1C(=O)c1ccc(=O)n(C)n1 (stereo not given) yielded an IC50 of 4.19 µM. CCN1CCN(C(=O)c2cc3c(-c4ccc(Cl)cc4)nn(C)c3s2)CC1 was tested, and the IC50 was > 55.7 µM (inactive). For O=C(CN1CCNCC1)Nc1ccc(Oc2ccccc2)cc1, the IC50 was > 55.7 µM (inactive). Compound CCOc1ccccc1-c1n[nH]c(=S)o1 has an IC50 of 0.521 µM. COc1ccc(C2c3[nH]c4ccccc4c3CCN2C(=O)c2ccc(=O)n(C)n2)c(F)c1 (stereo not given) was tested, and the IC50 was 2.44 µM. CCOC(=O)c1sc(NCc2ccco2)c(-c2nc3ccccc3s2)c1N gave an IC50 of 9.76 µM. For O=C(Nc1nnc(-c2ccccc2Cl)o1)c1nc2ccccc2s1, the IC50 was > 55.7 µM (inactive). COc1ccc(C2c3[nH]c4ccccc4c3CCN2C(=O)c2cc3ncccn3n2)c(F)c1 (stereo not given) showed an IC50 of 5.23 µM. With NNc1ncnc2sc3c(c12)CCC3 the IC50 was > 55.7 µM (inactive). In the case of O=C(CCc1nnc(Cc2ccc3c(c2)OCO3)o1)NCc1nc2ccccc2s1, the IC50 is reported as 2.85 µM. CCn1c(C(=O)Nc2ccsc2C(=O)OC)cc2sc(Cl)cc21 was tested, and the IC50 was > 55.7 µM (inactive). With NC(=O)CSc1c[nH]c2ccccc12 the IC50 was “inactive”. O=C(O)C1CC=CCC1C(=O)Nc1ccc(S(=O)(=O)N2CCCc3ccccc32)cc1 (stereo not given) showed an IC50 of 5.67 µM. For O=C(CCCSc1nc2ccccc2s1)NCc1ccco1, the IC50 was “inactive”. CC(=O)N1N=C(c2ccccc2O)OC1(C)CC(=O)Nc1ccccc1 (stereo not given) was tested, and the IC50 was > 55.7 µM (inactive). In the case of CCCN(CCC)C(=O)Cn1c2ccccc2c2nc(=O)cc(C)n21, the IC50 is reported as 0.174 µM. With CC1=C(C)C(=O)C(N2CCOCC2)=CC1=O the IC50 was “inactive”. With CCC(CC)NC(=O)Cc1ccccc1[N+](=O)[O-] the IC50 was > 55.7 µM (inactive). In the case of COCCCNC(=O)c1cc2c(-c3ccc(Cl)cc3)nn(C)c2s1, the IC50 is reported as > 55.7 µM (inactive). For Cc1c(C(=O)NCc2cccnc2)oc2ccc(S(=O)(=O)N3CC(C)CC(C)C3)cc12 (stereo not given), the IC50 was > 55.7 µM (inactive). CCCNC(=O)Cn1c2ccccc2c2nc(=O)cc(C)n21 showed an IC50 of 3.33 µM. With CCC(=O)NCCSc1c[nH]c2ccccc12 the IC50 was “inactive”. For COc1ccccc1-c1nnc(SCC(=O)NC2CCCCC2)o1, the IC50 was 1.87 µM. O=C(COc1ccccc1Cl)Nc1cc(Cl)ccc1O gave an IC50 of 0.571 µM. Cn1nc(-c2ccc(Cl)cc2)c2cc(C(=O)NCCN3CCOCC3)sc21 showed an IC50 of 6.88 µM. Work on COc1cc(NC(=O)c2cc(-c3ccco3)on2)c(OC)cc1Cl yielded an IC50 of 1.71 µM. In the case of COCc1cc(C)nc2sc(C(=O)NN)c(-n3cccc3)c12, the IC50 is reported as “inactive”. In the case of CC(C)CC(=O)NC(=S)Nc1nc(-c2ccccc2)cs1, the IC50 is reported as 0.468 µM. With O=C(Cc1cnc2ncnn2c1)N1CCc2c([nH]c3ccccc23)C1c1ccccc1F (stereo not given) the IC50 was “inactive”. CC(=O)NCCC(=O)N1CCc2c([nH]c3ccccc23)C1c1cccc(Cl)c1 (stereo not given) was tested, and the IC50 was > 55.7 µM (inactive). For COc1cccc2sc(Nc3nnc(-c4ccc(F)cc4)o3)nc12, the IC50 was > 0.688 µM (inactive). Work on COC(=O)c1n[nH]c2ccccc12 yielded an IC50 of 3.33 µM. For COc1ccccc1C(=O)NNC(=S)Nc1ccccc1, the IC50 was > 0.229 µM (inactive). In the case of O=C(O)C(Cc1c[nH]c2ccccc12)N1Cc2ccccc2C1=O (stereo not given), the IC50 is reported as “inactive”. O=C(C1CCCN(S(=O)(=O)c2cccc3cccnc23)C1)N1CCc2ccccc21 (stereo not given) was tested, and the IC50 was > 55.7 µM (inactive). With COCCNC(=O)c1cc2c(-c3ccc(Cl)cc3)nn(C)c2s1 the IC50 was > 55.7 µM (inactive). In the case of Cc1cccc2c1NC(=O)/C2=C\C(=O)c1cccs1, the IC50 is reported as > 18.6 µM (inactive). For CN1C(=O)c2ccccc2C(C(=O)NCCCN2CCCC2=O)C1c1c[nH]c2ccccc12 (stereo not given), the IC50 was > 55.7 µM (inactive). Cc1noc(/C=C/N(C)C)c1S(=O)(=O)N1CCc2ccccc21 was tested, and the IC50 was “inactive”. With COc1ccc(Cl)cc1NC(=O)Nc1ccc(Br)cn1 the IC50 was > 55.7 µM (inactive). In the case of Nc1ccccc1Sc1nc2ccccc2[nH]1, the IC50 is reported as “inactive”. COc1ccc(Cl)cc1-c1nc(-c2ccc(Br)o2)no1 gave an IC50 of 8.51 µM. With CC1=NN(c2ccccc2)C(=O)/C1=C/c1c(O)[nH]c(=O)[nH]c1=O the IC50 was > 55.7 µM (inactive). With COc1cccc(-c2nc(N3CCCCC3C)c3ccccc3n2)c1O (stereo not given) the IC50 was > 55.7 µM (inactive). With O=C(Cc1c[nH]c2ccccc12)Nc1nnc(C2CC2)s1 the IC50 was 2.98 µM. With O=c1c2ccccc2ncn1Cc1ccco1 the IC50 was 5.66 µM. Compound COC(=O)NNC(=O)c1ccccc1OC has an IC50 of 6.03 µM. For Cc1cc(C)n(-c2nnc3n2N=C(c2c[nH]c4ccccc24)CS3)n1, the IC50 was “inactive”. CCc1cc2c(NCCC(=O)O)nc(C)nc2s1 was tested, and the IC50 was > 55.7 µM (inactive). For CC(C)CC1c2[nH]c3ccccc3c2CCN1C(=O)CCC(=O)N(C)C (stereo not given), the IC50 was > 6.19 µM (inactive). In the case of Cc1ccc(CC(=O)Nc2nc3c(s2)CCCC3)cc1, the IC50 is reported as > 55.7 µM (inactive). For CCN(CC)S(=O)(=O)c1ccc(-c2nnc3sc4cccc(C)c4n23)cc1, the IC50 was > 55.7 µM (inactive). For CCOC(=O)C1(CC2CCCCO2)CCN(Cc2cc3ccccc3[nH]2)CC1 (stereo not given), the IC50 was > 55.7 µM (inactive). In the case of c1ccc2c(c1)CCCN2c1nc2ccccc2n2cnnc12, the IC50 is reported as 1.36 µM.

Reference: PubChem BioAssay AID1398 (The Scripps Research Institute Molecular Screening Center, 2008)
